Reference: article PMC7996328, “Design, Synthesis, and Biological Evaluation of a Series of 5- and 7-Hydroxycoumarin Derivatives as 5-HT1A Serotonin Receptor Antagonists” (Pharmaceuticals, 2021)
Entries after “also recorded” stand apart in the source; their conditions may differ. Read-outs that look alike come from different tables or passages of the source.

Columns and labels:
[1] = molecular target: T1, 5-HT2A receptor (Rattus norvegicus, UniProt P14842); assay: 5-HT2A competition binding assay, [3H]ketanserin, frontal cortex homogenates; conditions: [3H]ketanserin 1 nM
T1 construct: from tissue; host or cells: rat frontal cortex (male SD), membrane homogenate
T1 sequence (P14842 whole entry): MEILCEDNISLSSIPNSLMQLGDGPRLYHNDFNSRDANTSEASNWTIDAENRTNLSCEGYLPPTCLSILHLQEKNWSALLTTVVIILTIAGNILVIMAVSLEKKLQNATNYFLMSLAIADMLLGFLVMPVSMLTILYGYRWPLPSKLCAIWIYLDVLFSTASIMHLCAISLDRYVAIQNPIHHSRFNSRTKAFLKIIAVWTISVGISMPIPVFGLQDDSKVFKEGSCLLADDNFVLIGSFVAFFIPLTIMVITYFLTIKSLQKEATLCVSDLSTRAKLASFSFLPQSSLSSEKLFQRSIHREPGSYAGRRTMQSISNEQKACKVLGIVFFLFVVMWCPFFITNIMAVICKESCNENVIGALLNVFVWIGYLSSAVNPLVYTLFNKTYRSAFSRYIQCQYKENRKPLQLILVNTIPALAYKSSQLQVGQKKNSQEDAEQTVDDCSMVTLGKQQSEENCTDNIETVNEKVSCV
Protocol: Male SD rats were decapitated and their brains removed and placed on ice. Frontal cortices were homogenized with a glass homogenizer in 30 vol ice-cold homogenization buffer (50 mM Tris-HCl. 1 mM EDTA. 5 mM MgCl2. pH 7.4). Next, the homogenate was centrifuged at 20,000× g for 15 min at 4 °C. […] The suspension was again centrifuged at 20,000× g for 15 min at 4 °C. The pellet was resuspended in 10 vol. 50 mM Tris-HCl (pH 7.4) and the centrifugation step was repeated. The final pellet was suspended in 10 vol 50 mM Tris-HCl (pH 7.4) and stored at −80 °C.
Non-specific binding was determined in the presence of 10 μM mianserin. After incubation, the reaction mixture was deposited onto UniFilter-96 GF/B plates with the aid of a FilterMate-96 Harvester. Filter plates were presoaked beforehand with 0.4% PEI for 1 h. Next, each filter well was washed with 1.75 mL of 50 mM Tris-HCl (pH 7.4) and left to dry on a heating block set to 50 °C for 2 h. Then 45 µL of Microscint-20 scintillation fluid was added to each filter well and left to equilibrate overnight. Filter-bound radioactivity was counted in a MicroBeta^2 Microplate Counter. Binding curves were fitted with one site non-linear regression. Affinity was presented as the inhibitory constant (pKi ± SEM and Ki ± SEM) from two or three separate experiments.

[2] = molecular target: T2, 5-HT1A receptor (Rattus norvegicus, UniProt P19327); assay: Antagonist activity for the 5-HT1A receptor, [35S]GTPγS assay in hippocampal homogenates; assay type: biochemical; conditions: 8-OH-DPAT 1.4 × 10^−7 M, mean ± SEM; for EC50 / EC50 (nM ± SEM): antagonistic activity
T2 construct: Hippocampal homogenates (15 μg/mL) were added to each tube as the 5-HT1A receptor source; from tissue; host or cells: rat hippocampus (male Sprague-Dawley), membrane homogenate
T2 sequence (P19327 1-422): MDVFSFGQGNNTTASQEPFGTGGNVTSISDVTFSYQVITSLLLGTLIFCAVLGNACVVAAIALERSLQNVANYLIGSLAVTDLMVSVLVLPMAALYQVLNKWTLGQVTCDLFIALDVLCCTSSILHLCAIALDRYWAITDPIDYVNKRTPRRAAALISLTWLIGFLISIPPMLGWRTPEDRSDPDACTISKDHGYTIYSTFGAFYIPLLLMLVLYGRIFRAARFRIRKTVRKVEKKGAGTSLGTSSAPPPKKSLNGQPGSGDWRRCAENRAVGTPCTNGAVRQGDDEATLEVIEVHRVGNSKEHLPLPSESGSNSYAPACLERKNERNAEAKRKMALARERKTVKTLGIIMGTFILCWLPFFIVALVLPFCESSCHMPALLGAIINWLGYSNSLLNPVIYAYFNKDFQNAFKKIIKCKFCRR
Protocol: Male Sprague–Dawley rats were decapitated, their brains removed, and placed on ice. Hippocampi were dissected and homogenized with a glass homogenizer in 30 vol. ice-cold TED buffer (50 mM Tris-HCl, 1 mM EDTA, 1mM dithiotheritol, pH 7.4). Next, the homogenate was centrifuged at 21,000× g for 30 min at 4 °C. […] The suspension was centrifuged again at 21,000× g for 30 min at 4 °C. The pellet was resuspended in 30 vol. TED buffer (pH 7.4) and the centrifugation step was repeated. The final pellet was suspended in 10 vol 50 mM Tris-HCl (pH 7.4) and stored at −80 °C until use.
Serial dilutions of the compounds tested (10^−10–10^−5 M) were incubated in triplicate with 0.8 nM [^35S]GTPγS in assay buffer (50 mM Tris-HCl, pH = 7.4, 1 mM EGTA, 3 mM MgCl2, 100 mM NaCl, 30 µM GDP) and 8-OH-DPAT (final concentration 1.4 × 10^−7 M) in the final assay volume of 250 µL. Hippocampal homogenates (15 μg/mL) were added to each tube as the 5-HT1A receptor source. […] Non-specific binding was determined with 10 µM of unlabeled GTPγS. […] Next, 96-well Unifilter® Plates (Perkin Elmer, Waltham, MA, USA) were presoaked for 1 h with 50 mM Tris-HCl (pH = 7.4) before harvesting. The reaction was terminated by vacuum filtration onto filter plates with the FilterMate Harvester® (Perkin Elmer, Waltham, MA, USA). The samples were then rapidly washed with 2 mL of 50 mM Tris-HCl (pH = 7.4) buffer. Filter plates were dried for 2 h at 50 °C. After drying, 45 µL of EcoScint-20 scintillant (Perkin Elmer) was added to every well. Radioactivity was counted in a Trilux MicroBeta^2 counter (Perkin Elmer). Data were analyzed with GraphPad Prism 5.0 software (GraphPad Software, San Diego, CA, USA, www.graphpad.com). Curves were fitted with a one-site non-linear regression model. Efficacy (Emax) and half maximal inhibitory concentration (IC50) were calculated from the Cheng–Prusoff equation and expressed as means ± SEM.

[3] = read-out: Ki (nM ± SEM) (converted)

Row | SMILES | Ki [1, 3] [nM] | melting point [°C] | IC50 [2] [nM] | EC50 [2] [nM] | pIC50 ± SEM [2] | EC50 (nM ± SEM) [2] | Ki ([1]; read-out: pKi (M ± SEM) (converted)) [nM]
1 | CC(=O)c1c(OCCN2CCN(c3ccccc3C#N)CC2)ccc2c(C)cc(=O)oc12 [Compound 6j, 8-acetyl-7-(2-[4-(2-cyanophenyl)piperazin-1-yl]ethoxy)-4-methylchromen-2-one] | 496 ± 121 | 155 to 157 | 7940 | 7800 ± 1880 | – | – | –
2 | Cc1cc(OCCN2CCN(c3cccc(Cl)c3Cl)CC2)c2c(C)cc(=O)oc2c1 [Compound 2i, 5-(2-(4-(2,3-dichlorophenyl)piperazin-1-yl)ethoxy)-4,7-dimethyl-2H-chromen-2-one] | 4310 ± 1550 | 142 to 145 | 398000 | 366000 | – | – | –
3 | CC(=O)c1c(OCCN2CCN(c3ccccc3Br)CC2)ccc2c(C)cc(=O)oc12 [Compound 6f, 8-acetyl-7-(2-[4-(2-bromophenyl)piperazin-1-yl]ethoxy)-4-methylchromen-2-one] | 1500 ± 268 | 145 to 147 | 50100 | 46800 | – | – | –
4 | COc1cccc(N2CCN(CCOc3c(C(C)=O)c(C)cc4oc(=O)cc(C)c34)CC2)c1 [Compound 4c, 6-acetyl-5-(2-(4-(3-methoxyphenyl)piperazin-1-yl)ethoxy)-4,7-dimethyl-2H-chromen-2-one] | 513 ± 137 | 75 to 76 | 5010 | 5010 ± 117 | – | – | –
5 | CC(=O)c1c(OCCCCCN2CCN(c3cccc(F)c3)CC2)ccc2c(C)cc(=O)oc12 [Compound 5e, 8-acetyl-7-(5-[4-(3-fluorophenyl)piperazin-1-yl]penthoxy)-4-methylchromen-2-one] | 2110 ± 420 | 117 to 119 | 31600 | 33900 | – | – | –
6 | Cc1cc(C)cc(N2CCN(CCOc3cc(C)cc4oc(=O)cc(C)c34)CC2)c1 [Compound 2h, 5-(2-(4-(3,5-dimethylphenyl)piperazin-1-yl)ethoxy)-4,7-dimethyl-2H-chromen-2-one] | 2920 ± 992 | 149 to 150 | – | – | no activity | did not show any activity; also recorded: no activity | –
7 | COc1cccc(N2CCN(CCCCCOc3cc(C)cc4oc(=O)cc(C)c34)CC2)c1 [Compound 1c, 5-(5-(4-(3-methoxyphenyl)piperazin-1-yl)pentyloxy)-4,7-dimethyl-2H-chromen-2-one] | 610 ± 139 | 103 to 105 | 1580 | 1700 ± 358 | – | – | –
8 | CC(=O)c1c(C)cc2oc(=O)cc(C)c2c1OCCCCCN1CCN(c2cc(C)ccc2C)CC1 [Compound 3d, 6-acetyl-5-(5-(4-(2,5-dimethylphenyl)piperazin-1-yl)pentyloxy)-4,7-dimethyl-2H-chromen-2-one] | 1940 ± 388 | 97 to 99 | 10000 | 9430 ± 1040 | – | – | –
9 | Cc1cc(OCCN2CCN(c3ccccc3F)CC2)c2c(C)cc(=O)oc2c1 [Compound 2b, 5-(2-(4-(2-fluorophenyl)piperazin-1-yl)ethoxy)-4,7-dimethyl-2H-chromen-2-one] | 2130 ± 662 | 121 to 123 | – | – | no activity | did not show any activity; also recorded: no activity | –
10 | Cc1cc(OCCCCCN2CCN(c3ccccc3F)CC2)c2c(C)cc(=O)oc2c1 [Compound 1b, 5-(5-(4-(2-fluorophenyl)piperazin-1-yl)pentyloxy)-4,7-dimethyl-2H-chromen-2-one] | 1260 ± 479 | 106 to 108 | 1000 | 980 ± 207 | – | – | –
11 | Cc1cc(OCCN2CCN(c3ccccc3Br)CC2)c2c(C)cc(=O)oc2c1 [Compound 2f, 5-(2-(4-(2-bromophenyl)piperazin-1-yl)ethoxy)-4,7-dimethyl-2H-chromen-2-one] | 9600 ± 2840 | 129 to 130 | – | – | no activity | did not show any activity; also recorded: no activity | –
12 | CC(=O)c1c(C)cc2oc(=O)cc(C)c2c1OCCCCCN1CCN(c2cccc(F)c2)CC1 [Compound 3e, 6-acetyl-5-(5-(4-(3-fluorophenyl)piperazin-1-yl)pentyloxy)-4,7-dimethyl-2H-chromen-2-one] | 1420 ± 426 | 150 to 152 | 708 | 702 ± 112 | – | – | –
13 | COc1ccccc1N1CCN(CCCCCOc2ccc3c(C)cc(=O)oc3c2C(C)=O)CC1 [Compound 5a, 8-acetyl-7-(5-[4-(2-methoxyphenyl)piperazin-1-yl]penthoxy)-4-methylchromen-2-one] | 343 ± 86 | 126 to 128 | 31.6 | 30.5 ± 2.56 | – | – | –
14 | COc1ccccc1N1CCN(CCCCCOc2cc(C)cc3oc(=O)cc(C)c23)CC1 [Compound 1a, 5-(5-(4-(2-methoxyphenyl)piperazin-1-yl)pentyloxy)-4,7-dimethyl-2H-chromen-2-one] | 776 ± 187 | 66 to 68 | 31.6 | 29.4 ± 7.3 | – | – | 644
15 | CC(=O)c1c(OCCN2CCN(c3cc(C)ccc3C)CC2)ccc2c(C)cc(=O)oc12 [Compound 6d, 8-acetyl-7-(2-[4-(2,5-dimethylphenyl)piperazin-1-yl]ethoxy)-4-methylchromen-2-one] | 2050 ± 405 | 96 to 98 | 63100 | 59900 | – | – | –
16 | CC(=O)c1c(C)cc2oc(=O)cc(C)c2c1OCCN1CCN(c2ccccc2C#N)CC1 [Compound 4j, 6-acetyl-5-(2-(4-(2-cyanophenyl)piperazin-1-yl)ethoxy)-4,7-dimethyl-2H-chromen-2-one] | 2430 ± 374 | 153 to 155 | 501 | 538 ± 105 | – | – | –
17 | COc1ccccc1N1CCN(CCOc2c(C(C)=O)c(C)cc3oc(=O)cc(C)c23)CC1 [Compound 4a, 6-acetyl-5-(2-(4-(2-methoxyphenyl)piperazin-1-yl)ethoxy)-4,7-dimethyl-2H-chromen-2-one] | 5210 ± 1250 | 132 to 134 | 100 | 91.6 ± 13.3 | – | – | –
18 | Cc1cc(OCCN2CCN(c3ccccc3C#N)CC2)c2c(C)cc(=O)oc2c1 [Compound 2j, 5-(2-(4-(2-cyanophenyl)piperazin-1-yl)ethoxy)-4,7-dimethyl-2H-chromen-2-one] | 5620 ± 1850 | 127 to 129 | – | – | no activity | did not show any activity; also recorded: no activity | –
19 | COc1ccccc1N1CCN(CCOc2ccc3c(C)cc(=O)oc3c2C(C)=O)CC1 [Compound 6a, 8-acetyl-7-(2-[4-(2-methoxyphenyl)piperazin-1-yl]ethoxy)-4-methylchromen-2-one] | 752 ± 171 | 157 to 159 | 3160 | 2740 ± 626 | – | – | –
